Earlier results on 2 molecules are cited in patent US20090019042A1, “Method Of Screening Compound Regulating The Translation Of Specific mRNA” (Takeda Pharmaceutical Company Limited, priority 2004, published 2009).

Broadly, the pKd is −log10 of the Kd, conventionally taken in molar units.

pKd: −log10 of the molar value.

One series addresses LysC mRNA. To be noted: L-lysine recognised by LysC mRNA.
A further series has as its target xpt-pbux mRNA. To be noted: guanine recognised by xpt-pbux mRNA.

With `NCCCC[C@H](N)C(=O)O` [L-lysine], the pKd at LysC mRNA was 6.00.
For the molecule `Nc1nc2nc[nH]c2c(=O)[nH]1` [guanine], the pKd on xpt-pbux mRNA is greater than 8.30.
